Assay results published in patent US20060154243A1 (priority 2003, published 2006).

Experiments:
two control sera = assay type: binding, human
[1] = test system: sera SARS-green, SARS-yellow, 1a, 1b, 2, 6, 37, 62 and London; assay type: binding, human
[2] = test system: rabbit serum obtained by immunizing with SARS-CoV strain Frankfurt 1; assay type: binding
[3] = test system: control serum LUMC (pooled serum of ten healthy hospital workers); assay type: binding, human
serum SARS-green = assay type: binding, human
serum 37 (individual 37) = assay type: binding, human
serum 2 (individual 2) = assay type: binding, human
[4] = test system: control serum Blood-bank (commercial negative donor pooled serum); assay type: binding, human
serum 62 (individual 62) = assay type: binding, human
[5] = test system: serum 1b (individual 1, late serum); assay type: binding, human
serum SARS-yellow = assay type: binding, human
serum London = assay type: binding, human
serum 6 (individual 6) = assay type: binding, human
[6] = test system: serum 1a (individual 1, early serum); assay type: binding, human

CTVVQRCASNKPHVL
Recognition by at least one of the control sera (two control sera): recognized by at least one of the control sera | Recognition of the peptide by sera of individuals infected by SARS-CoV, form recognized [1]: recognized in linear and in looped form | Rabbit serum linear peptides [2]: 1.7 | Rabbit serum looped peptides [2]: 1.0

TVVQRCASNKPHVLE
Recognition by at least one of the control sera (two control sera): recognized by at least one of the control sera | Recognition of the peptide by sera of individuals infected by SARS-CoV, form recognized [1]: recognized in linear and in looped form | Rabbit serum linear peptides [2]: 0.7 | Rabbit serum looped peptides [2]: 0.3

NVVPPALHLVDPQIQ
Recognition by at least one of the control sera (two control sera): recognized by at least one of the control sera | Recognition of the peptide by sera of individuals infected by SARS-CoV, form recognized [1]: recognized in linear and in looped form | Rabbit serum linear peptides [2]: 0.1 | Rabbit serum looped peptides [2]: 0.5

TNVVPPALHLVDPQI
Recognition by at least one of the control sera (two control sera): recognized by at least one of the control sera | Recognition of the peptide by sera of individuals infected by SARS-CoV, form recognized [1]: recognized in linear and in looped form | Rabbit serum linear peptides [2]: 0.1 | Rabbit serum looped peptides [2]: 0.5

QHCQKASTQREAEAA
Control serum LUMC linear peptides [3]: 0.4 | Control serum LUMC looped peptides [3]: 1.2 | Binding of serum SARS-green to linear peptides of Orf14 of SARS-CoV TOR2 (serum SARS-green): 0.3 | Binding of serum 37 to linear peptides of Orf14 of SARS-CoV TOR2 (serum 37 (individual 37)): 0.5 | Binding of serum 2 to linear peptides of Orf14 of SARS-CoV TOR2 (serum 2 (individual 2)): 0.6 | Control Serum Blood-Bank Looped peptides [4]: 1.1 | Control serum Blood-bank linear peptides [4]: 0.4 | Recognition of the peptide by sera of individuals infected by SARS-CoV, form recognized [1]: recognized in looped form | Binding of serum 62 to linear peptides of Orf14 of SARS-CoV TOR2 (serum 62 (individual 62)): 0.4 | Binding of serum 1b to linear peptides of Orf14 of SARS-CoV TOR2 [5]: 0.4 | Binding of serum SARS-yellow to linear peptides of Orf14 of SARS-CoV TOR2 (serum SARS-yellow): 0.3 | Binding of serum London to linear peptides of Orf14 of SARS-CoV TOR2 (serum London): 0.5 | Binding of serum 6 to linear peptides of Orf14 of SARS-CoV TOR2 (serum 6 (individual 6)): 0.3 | Binding of serum 1a to linear peptides of Orf14 of SARS-CoV TOR2 [6]: 0.4

VVPPALHLVDPQIQL
Recognition by at least one of the control sera (two control sera): recognized by at least one of the control sera | Recognition of the peptide by sera of individuals infected by SARS-CoV, form recognized [1]: recognized in linear and in looped form | Rabbit serum linear peptides [2]: 1.2 | Rabbit serum looped peptides [2]: 0.4

EQHCQKASTQREAEA
Control serum LUMC linear peptides [3]: 0.4 | Control serum LUMC looped peptides [3]: 0.8 | Binding of serum SARS-green to linear peptides of Orf14 of SARS-CoV TOR2 (serum SARS-green): 0.3 | Binding of serum 37 to linear peptides of Orf14 of SARS-CoV TOR2 (serum 37 (individual 37)): 0.5 | Binding of serum 2 to linear peptides of Orf14 of SARS-CoV TOR2 (serum 2 (individual 2)): 0.6 | Control Serum Blood-Bank Looped peptides [4]: 0.9 | Control serum Blood-bank linear peptides [4]: 0.5 | Recognition of the peptide by sera of individuals infected by SARS-CoV, form recognized [1]: recognized in looped form | Binding of serum 62 to linear peptides of Orf14 of SARS-CoV TOR2 (serum 62 (individual 62)): 0.3 | Binding of serum 1b to linear peptides of Orf14 of SARS-CoV TOR2 [5]: 0.4 | Binding of serum SARS-yellow to linear peptides of Orf14 of SARS-CoV TOR2 (serum SARS-yellow): 0.4 | Binding of serum London to linear peptides of Orf14 of SARS-CoV TOR2 (serum London): 0.5 | Binding of serum 6 to linear peptides of Orf14 of SARS-CoV TOR2 (serum 6 (individual 6)): 0.4 | Binding of serum 1a to linear peptides of Orf14 of SARS-CoV TOR2 [6]: 0.4

ASTQREAEAAVKPLL
Control serum LUMC linear peptides [3]: 0.4 | Control serum LUMC looped peptides [3]: 0.8 | Binding of serum SARS-green to linear peptides of Orf14 of SARS-CoV TOR2 (serum SARS-green): 0.4 | Binding of serum 37 to linear peptides of Orf14 of SARS-CoV TOR2 (serum 37 (individual 37)): 0.5 | Binding of serum 2 to linear peptides of Orf14 of SARS-CoV TOR2 (serum 2 (individual 2)): 0.4 | Control Serum Blood-Bank Looped peptides [4]: 0.9 | Control serum Blood-bank linear peptides [4]: 0.5 | Recognition of the peptide by sera of individuals infected by SARS-CoV, form recognized [1]: recognized in looped form | Binding of serum 62 to linear peptides of Orf14 of SARS-CoV TOR2 (serum 62 (individual 62)): 0.4 | Binding of serum 1b to linear peptides of Orf14 of SARS-CoV TOR2 [5]: 0.3 | Binding of serum SARS-yellow to linear peptides of Orf14 of SARS-CoV TOR2 (serum SARS-yellow): 0.4 | Binding of serum London to linear peptides of Orf14 of SARS-CoV TOR2 (serum London): 0.4 | Binding of serum 6 to linear peptides of Orf14 of SARS-CoV TOR2 (serum 6 (individual 6)): 0.5 | Binding of serum 1a to linear peptides of Orf14 of SARS-CoV TOR2 [6]: 0.4

QKASTQREAEAAVKP
Control serum LUMC linear peptides [3]: 0.3 | Control serum LUMC looped peptides [3]: 0.8 | Binding of serum SARS-green to linear peptides of Orf14 of SARS-CoV TOR2 (serum SARS-green): 0.1 | Binding of serum 37 to linear peptides of Orf14 of SARS-CoV TOR2 (serum 37 (individual 37)): 0.4 | Binding of serum 2 to linear peptides of Orf14 of SARS-CoV TOR2 (serum 2 (individual 2)): 0.4 | Control Serum Blood-Bank Looped peptides [4]: 0.7 | Control serum Blood-bank linear peptides [4]: 0.3 | Recognition of the peptide by sera of individuals infected by SARS-CoV, form recognized [1]: recognized in looped form | Binding of serum 62 to linear peptides of Orf14 of SARS-CoV TOR2 (serum 62 (individual 62)): 0.3 | Binding of serum 1b to linear peptides of Orf14 of SARS-CoV TOR2 [5]: 0.3 | Binding of serum SARS-yellow to linear peptides of Orf14 of SARS-CoV TOR2 (serum SARS-yellow): 0.1 | Binding of serum London to linear peptides of Orf14 of SARS-CoV TOR2 (serum London): 0.3 | Binding of serum 6 to linear peptides of Orf14 of SARS-CoV TOR2 (serum 6 (individual 6)): 0.3 | Binding of serum 1a to linear peptides of Orf14 of SARS-CoV TOR2 [6]: 0.4

PCYNFLKEQHCQKAS
Control serum LUMC linear peptides [3]: 0.1 | Control serum LUMC looped peptides [3]: 0.5 | Binding of serum SARS-green to linear peptides of Orf14 of SARS-CoV TOR2 (serum SARS-green): 0.1 | Binding of serum 37 to linear peptides of Orf14 of SARS-CoV TOR2 (serum 37 (individual 37)): 0.4 | Binding of serum 2 to linear peptides of Orf14 of SARS-CoV TOR2 (serum 2 (individual 2)): 0.1 | Control Serum Blood-Bank Looped peptides [4]: 0.7 | Control serum Blood-bank linear peptides [4]: 0.0 | Recognition of the peptide by sera of individuals infected by SARS-CoV, form recognized [1]: recognized in looped form | Binding of serum 62 to linear peptides of Orf14 of SARS-CoV TOR2 (serum 62 (individual 62)): 0.1 | Binding of serum 1b to linear peptides of Orf14 of SARS-CoV TOR2 [5]: 0.2 | Binding of serum SARS-yellow to linear peptides of Orf14 of SARS-CoV TOR2 (serum SARS-yellow): 0.1 | Binding of serum London to linear peptides of Orf14 of SARS-CoV TOR2 (serum London): 0.2 | Binding of serum 6 to linear peptides of Orf14 of SARS-CoV TOR2 (serum 6 (individual 6)): 0.3 | Binding of serum 1a to linear peptides of Orf14 of SARS-CoV TOR2 [6]: 0.3

VPPALHLVDPQIQLT
Recognition by at least one of the control sera (two control sera): recognized by at least one of the control sera | Recognition of the peptide by sera of individuals infected by SARS-CoV, form recognized [1]: recognized in linear and in looped form | Rabbit serum linear peptides [2]: 1.0 | Rabbit serum looped peptides [2]: 0.4

ICTVVQRCASNKPHV
Recognition by at least one of the control sera (two control sera): recognized by at least one of the control sera | Recognition of the peptide by sera of individuals infected by SARS-CoV, form recognized [1]: recognized in linear and in looped form | Rabbit serum linear peptides [2]: 0.3 | Rabbit serum looped peptides [2]: 0.4

YNFLKEQHCQKASTQ
Control serum LUMC linear peptides [3]: 0.5 | Control serum LUMC looped peptides [3]: 0.5 | Binding of serum SARS-green to linear peptides of Orf14 of SARS-CoV TOR2 (serum SARS-green): 0.5 | Binding of serum 37 to linear peptides of Orf14 of SARS-CoV TOR2 (serum 37 (individual 37)): 0.6 | Binding of serum 2 to linear peptides of Orf14 of SARS-CoV TOR2 (serum 2 (individual 2)): 0.5 | Control Serum Blood-Bank Looped peptides [4]: 0.7 | Control serum Blood-bank linear peptides [4]: 0.5 | Recognition of the peptide by sera of individuals infected by SARS-CoV, form recognized [1]: recognized in looped form | Binding of serum 62 to linear peptides of Orf14 of SARS-CoV TOR2 (serum 62 (individual 62)): 0.5 | Binding of serum 1b to linear peptides of Orf14 of SARS-CoV TOR2 [5]: 0.4 | Binding of serum SARS-yellow to linear peptides of Orf14 of SARS-CoV TOR2 (serum SARS-yellow): 0.3 | Binding of serum London to linear peptides of Orf14 of SARS-CoV TOR2 (serum London): 0.7 | Binding of serum 6 to linear peptides of Orf14 of SARS-CoV TOR2 (serum 6 (individual 6)): 0.5 | Binding of serum 1a to linear peptides of Orf14 of SARS-CoV TOR2 [6]: 0.5

CQKASTQREAEAAVK
Control serum LUMC linear peptides [3]: 0.2 | Control serum LUMC looped peptides [3]: 0.5 | Binding of serum SARS-green to linear peptides of Orf14 of SARS-CoV TOR2 (serum SARS-green): 0.0 | Binding of serum 37 to linear peptides of Orf14 of SARS-CoV TOR2 (serum 37 (individual 37)): 0.3 | Binding of serum 2 to linear peptides of Orf14 of SARS-CoV TOR2 (serum 2 (individual 2)): 0.3 | Control Serum Blood-Bank Looped peptides [4]: 0.7 | Control serum Blood-bank linear peptides [4]: 0.2 | Recognition of the peptide by sera of individuals infected by SARS-CoV, form recognized [1]: recognized in looped form | Binding of serum 62 to linear peptides of Orf14 of SARS-CoV TOR2 (serum 62 (individual 62)): 0.2 | Binding of serum 1b to linear peptides of Orf14 of SARS-CoV TOR2 [5]: 0.2 | Binding of serum SARS-yellow to linear peptides of Orf14 of SARS-CoV TOR2 (serum SARS-yellow): 0.1 | Binding of serum London to linear peptides of Orf14 of SARS-CoV TOR2 (serum London): 0.2 | Binding of serum 6 to linear peptides of Orf14 of SARS-CoV TOR2 (serum 6 (individual 6)): 0.2 | Binding of serum 1a to linear peptides of Orf14 of SARS-CoV TOR2 [6]: 0.3
